# Literature values, collected in patent publication US8697911B2, “Rho kinase inhibitors” (Boehringer Ingelheim International GmbH, priority 2010, dated 2014).
# Like-named read-outs stand apart in the source and are kept apart here.
# Legend:
# Dahl salt-sensitive rats = conditions: rat, in vivo; cited from earlier work
# [1] = test system: neointimal formation in rats; conditions: cited from earlier work
# [2] = test system: spontaneously hypertensive rat, renal hypertensive rat and deoxycortisone acetate salt hypertensive rat models; conditions: cited from earlier work
structure (smiles),measurement,setting,value
C[C@@H](N)[C@H]1CC[C@H](C(=O)Nc2ccncc2)CC1 [Y-27632],ventricular hypertrophy and function,Dahl salt-sensitive rats,improve ventricular hypertrophy and function
same,neointimal formation,[1],inhibited neointimal formation
same,effect on blood pressure,[2]; control rats,only a minor effect on blood pressure
same,effect on blood pressure,[2]; three rat models of hypertension,significantly decrease blood pressure
